Assay results: US7745619B2, “Vinca derivatives” (priority 2003, dated 2010)

Key:
Type in all cases: cell-based
[1] = tested on: BT-549; assay: NCI 60-cell line growth inhibition assay: BT-549; conditions: Homo sapiens, Breast, read-out: GI50
[2] = tested on: HS 578T; assay: NCI 60-cell line growth inhibition assay: HS 578T; conditions: Homo sapiens; Breast, HS 578T; read-out: GI50
[3] = tested on: MCF7; assay: NCI 60-cell line growth inhibition assay: MCF7; conditions: Homo sapiens, Breast, read-out: GI50
[4] = tested on: MDA-MB-231/ATCC; assay: NCI 60-cell line growth inhibition assay: MDA-MB-231/ATCC; conditions: Homo sapiens; Breast, MDA-MB-231/ATCC; read-out: GI50
[5] = tested on: MDA-MB-435; assay: NCI 60-cell line growth inhibition assay: MDA-MB-435; conditions: Homo sapiens, Breast, read-out: GI50
[6] = tested on: NCI/ADR-RES; conditions: Homo sapiens, Breast, read-out: GI50
[7] = tested on: SF-295; assay: NCI 60-cell line growth inhibition assay: SF-295; conditions: Homo sapiens, CNS, read-out: GI50
[8] = tested on: SF-539; assay: NCI 60-cell line growth inhibition assay: SF-539; conditions: Homo sapiens; CNS, SF-539; read-out: GI50
[9] = tested on: SNB-19; assay: NCI 60-cell line growth inhibition assay: SNB-19; conditions: Homo sapiens, CNS, read-out: GI50
[10] = tested on: SNB-75; assay: NCI 60-cell line growth inhibition assay: SNB-75; conditions: Homo sapiens, CNS, read-out: GI50
[11] = tested on: U251; assay: NCI 60-cell line growth inhibition assay: U251; conditions: Homo sapiens, U-251; CNS, U251; read-out: GI50
[12] = tested on: COLO 205; assay: NCI 60-cell line growth inhibition assay: COLO 205; conditions: Homo sapiens, Colon, read-out: GI50
[13] = tested on: HCC-2998; assay: NCI 60-cell line growth inhibition assay: HCC-2998; conditions: Homo sapiens; Colon, HCC-2998; read-out: GI50
[14] = tested on: HCT-116; assay: NCI 60-cell line growth inhibition assay: HCT-116; conditions: Homo sapiens, Colon, read-out: GI50
[15] = tested on: HCT-15; assay: NCI 60-cell line growth inhibition assay: HCT-15; conditions: Homo sapiens, Colon, read-out: GI50
[16] = tested on: HT29; assay: NCI 60-cell line growth inhibition assay: HT29; conditions: Homo sapiens, HT-29; Colon, HT29; read-out: GI50
[17] = tested on: KM12; assay: NCI 60-cell line growth inhibition assay: KM12; conditions: Homo sapiens, Colon, read-out: GI50
[18] = tested on: SW-620; assay: NCI 60-cell line growth inhibition assay: SW-620; conditions: Homo sapiens, Colon, read-out: GI50
[19] = tested on: K-562; assay: NCI 60-cell line growth inhibition assay: K-562; conditions: Homo sapiens, K562; Leukemia, K-562; read-out: GI50
[20] = tested on: MOLT-4; assay: NCI 60-cell line growth inhibition assay: MOLT-4; conditions: Homo sapiens, Leukemia, read-out: GI50
[21] = tested on: LOX IMVI; assay: NCI 60-cell line growth inhibition assay: LOX IMVI; conditions: Homo sapiens, Melanoma, read-out: GI50
[22] = tested on: M14; assay: NCI 60-cell line growth inhibition assay: M14; conditions: Homo sapiens, Melanoma, read-out: GI50
[23] = tested on: MALME-3M; assay: NCI 60-cell line growth inhibition assay: MALME-3M; conditions: Homo sapiens; Melanoma, MALME-3M; read-out: GI50
[24] = tested on: SK-MEL-2; assay: NCI 60-cell line growth inhibition assay: SK-MEL-2; conditions: Homo sapiens, Melanoma, read-out: GI50
[25] = tested on: SK-MEL-5; assay: NCI 60-cell line growth inhibition assay: SK-MEL-5; conditions: Homo sapiens, Melanoma, read-out: GI50
[26] = tested on: UACC-257; assay: NCI 60-cell line growth inhibition assay: UACC-257; conditions: Homo sapiens, Melanoma, read-out: GI50
[27] = tested on: UACC-62; assay: NCI 60-cell line growth inhibition assay: UACC-62; conditions: Homo sapiens, Melanoma, read-out: GI50
[28] = tested on: A549/ATCC; assay: NCI 60-cell line growth inhibition assay: A549/ATCC; conditions: Homo sapiens; Non-Small Cell Lung, A549/ATCC; read-out: GI50
[29] = tested on: EKVX; assay: NCI 60-cell line growth inhibition assay: EKVX; conditions: Homo sapiens, Non-Small Cell Lung, read-out: GI50
[30] = tested on: HOP-62; assay: NCI 60-cell line growth inhibition assay: HOP-62; conditions: Homo sapiens, Non-Small Cell Lung, read-out: GI50
[31] = tested on: HOP-92; assay: NCI 60-cell line growth inhibition assay: HOP-92; conditions: Homo sapiens, Non-Small Cell Lung, read-out: GI50
[32] = tested on: NCI-H23; conditions: Homo sapiens, Non-Small Cell Lung, read-out: GI50
[33] = tested on: NCI-H460; conditions: Homo sapiens, Non-Small Cell Lung, read-out: GI50
[34] = tested on: NCI-H522; conditions: Homo sapiens, Non-Small Cell Lung, read-out: GI50
[35] = tested on: OVCAR-3; assay: NCI 60-cell line growth inhibition assay: OVCAR-3; conditions: Homo sapiens, Ovarian, read-out: GI50
[36] = tested on: OVCAR-4; assay: NCI 60-cell line growth inhibition assay: OVCAR-4; conditions: Homo sapiens, Ovarian, read-out: GI50
[37] = tested on: OVCAR-5; assay: NCI 60-cell line growth inhibition assay: OVCAR-5; conditions: Homo sapiens, Ovarian, read-out: GI50
[38] = tested on: OVCAR-8; assay: NCI 60-cell line growth inhibition assay: OVCAR-8; conditions: Homo sapiens, Ovarian, read-out: GI50
[39] = tested on: SK-OV-3; assay: NCI 60-cell line growth inhibition assay: SK-OV-3; conditions: Homo sapiens, Ovarian, read-out: GI50
[40] = tested on: DU-145; assay: NCI 60-cell line growth inhibition assay: DU-145; conditions: Homo sapiens, Prostate, read-out: GI50
[41] = tested on: PC-3; assay: NCI 60-cell line growth inhibition assay: PC-3; conditions: Homo sapiens, Prostate, read-out: GI50
[42] = tested on: 786-0; assay: NCI 60-cell line growth inhibition assay: 786-0; conditions: Homo sapiens, Renal, read-out: GI50
[43] = tested on: A498; assay: NCI 60-cell line growth inhibition assay: A498; conditions: Homo sapiens, Renal
From the text: The following data in Table 4 summarize the growth inhibition properties of several compounds of the present invention against 60-human transformed cell lines.

[44] = tested on: ACHN; assay: NCI 60-cell line growth inhibition assay: ACHN; conditions: Homo sapiens, Renal, read-out: GI50
[45] = tested on: CAKI-1; assay: NCI 60-cell line growth inhibition assay: CAKI-1; conditions: Homo sapiens, Renal, read-out: GI50
[46] = tested on: RXF 393; assay: NCI 60-cell line growth inhibition assay: RXF 393; conditions: Homo sapiens, Renal, read-out: GI50
[47] = tested on: SN12C; assay: NCI 60-cell line growth inhibition assay: SN12C; conditions: Homo sapiens, Renal, read-out: GI50
[48] = tested on: TK-10; assay: NCI 60-cell line growth inhibition assay: TK-10; conditions: Homo sapiens, Renal, read-out: GI50
[49] = tested on: UO-31; assay: NCI 60-cell line growth inhibition assay: UO-31; conditions: Homo sapiens, Renal, read-out: GI50

C#Cc1ccc2[nH]c3c(c2c1)CCN1C[C@H](C[C@@](O)(CC)C1)C[C@]3(C(=O)OC)c1cc2c(cc1OC)N(C)[C@H]1[C@@](O)(C(=O)OC)[C@H](OC(C)=O)[C@]3(CC)C=CCN4CC[C@]21[C@@H]43 [Example 17, 12′-ethynylvinblastine]
GI50 [1]: < 10 nM
GI50 [2]: < 10 nM
GI50 [3]: < 10 nM
GI50 [4]: < 10 nM
GI50 [5]: < 10 nM
GI50 [6]: 2090 nM
GI50 [7]: < 10 nM
GI50 [8]: < 10 nM
GI50 [9]: < 10 nM
GI50 [10]: < 10 nM
GI50 [11]: < 10 nM
GI50 [12]: < 10 nM
GI50 [13]: < 10 nM
GI50 [14]: < 10 nM
GI50 [15]: 44 nM
GI50 [16]: < 10 nM
GI50 [17]: < 10 nM
GI50 [18]: < 10 nM
GI50 [19]: 53.1 nM
GI50 [20]: < 10 nM
GI50 [21]: < 10 nM
GI50 [22]: < 10 nM
GI50 [23]: < 10 nM
GI50 [24]: < 10 nM
GI50 [25]: < 10 nM
GI50 [26]: 22400 nM
GI50 [27]: < 10 nM
GI50 [28]: 16.9 nM
GI50 [29]: < 10 nM
GI50 [30]: < 10 nM
GI50 [31]: 160 nM
GI50 [32]: < 10 nM
GI50 [33]: < 10 nM
GI50 [34]: < 10 nM
GI50 [35]: < 10 nM
GI50 [36]: 15.3 nM
GI50 [37]: < 10 nM
GI50 [38]: < 10 nM
GI50 [39]: < 10 nM
GI50 [40]: < 10 nM
GI50 [41]: < 10 nM
GI50 [42]: < 10 nM
GI50 [43]: < 10 nM
GI50 [44]: < 10 nM
GI50 [45]: 73.4 nM
GI50 [46]: < 10 nM
GI50 [47]: < 10 nM
GI50 [48]: < 10 nM
GI50 [49]: 98.6 nM
